{"source": "patent US12281335B2", "about": "“Methods and compositions for delivery of viral vectors across the blood-brain barrier” (priority 2017, dated 2025)", "key": {"[1]": {"tested_on": "C57BL/6 mice", "assay": "In vivo luciferase imaging after retro-orbital injection of AAV8/luc with peptides", "parameters": "species or system mouse", "quoted_text": "(§1) Animal study. […] Mice were administered with AAV8/Luc incubated with peptides via retro-orbital injection. Luciferase expression was imaged at the indicated time points using a Xenogen IVIS Lumina (Caliper Lifesciences, Waltham, MA) following intraperitoneal injection of D-luciferin substrate (Nanolight Pinetop, AZ). Bioluminescent images were analyzed using Living Image (PerkinElmer, Waltham, MA). At various time points after injection, blood was collected from the retro-orbital plexus, and the viral titers were tested by qPCR."}, "[2]": {"tested_on": "C57BL/6 mice", "assay": "Quantitation of luciferase expression in tissues", "type": "in vivo, mouse", "method": "Quantitation of luciferase expression in tissues. Animals utilized for imaging studies were sacrificed after one-week post imaging work, and the tissues of the heart, liver, spleen, skeletal muscle and brain were collected, and were minced and homogenized in passive lysis buffer. Then the lysates were centrifuged at 10,000 rpm for 5 minutes to remove cellular debris. Supernatant was transferred to 96-well plates for luciferase activity analysis as described above. Total protein concentration in tissue lysates was measured using the Bradford assay (Bio-Rad Laboratories, Philadelphia, PA)."}, "[3]": {"tested_on": "C57BL/6 mice", "assay": "Measurement of AAV genome copy number in tissue", "type": "in vivo, mouse", "method": "Measurement of AAV genome copy number in tissue. Total gDNA from different minced tissues was isolated with the DNeasy blood & tissue kit (Qiagen, USA). Luciferase gene was measured by qPCR assay. Mouse-lamin gene served as an internal control."}, "[4]": {"biological_target": "T1, mouse TfR1 (Mus musculus, UniProt Q62351)", "T1 construct": "expressed in transfected cells; host or cells: CHO-TRVB cells (devoid of endogenous TfR1)", "T1 sequence (Q62351 whole entry)": "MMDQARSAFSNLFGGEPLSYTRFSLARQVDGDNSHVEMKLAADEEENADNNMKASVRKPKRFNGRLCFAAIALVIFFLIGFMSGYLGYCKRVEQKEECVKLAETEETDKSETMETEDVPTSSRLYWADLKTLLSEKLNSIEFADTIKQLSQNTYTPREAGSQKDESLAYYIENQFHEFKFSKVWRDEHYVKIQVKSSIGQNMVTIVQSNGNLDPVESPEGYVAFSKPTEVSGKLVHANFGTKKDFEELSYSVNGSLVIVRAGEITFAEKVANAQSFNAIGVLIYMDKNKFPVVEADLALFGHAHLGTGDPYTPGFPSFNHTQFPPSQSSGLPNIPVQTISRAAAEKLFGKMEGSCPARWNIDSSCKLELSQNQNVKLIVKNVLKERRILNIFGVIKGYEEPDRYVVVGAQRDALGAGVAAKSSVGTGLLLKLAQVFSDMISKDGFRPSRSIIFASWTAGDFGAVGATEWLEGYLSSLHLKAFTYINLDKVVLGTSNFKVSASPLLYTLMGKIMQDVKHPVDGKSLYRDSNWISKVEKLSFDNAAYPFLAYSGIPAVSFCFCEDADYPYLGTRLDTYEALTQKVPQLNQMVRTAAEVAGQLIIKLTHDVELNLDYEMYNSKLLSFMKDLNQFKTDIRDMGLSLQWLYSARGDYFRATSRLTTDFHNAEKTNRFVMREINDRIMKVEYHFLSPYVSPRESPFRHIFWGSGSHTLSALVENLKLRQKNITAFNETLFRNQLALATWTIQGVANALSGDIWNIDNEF", "assay": "Immunofluorescence assay on CHO-TRVB cells", "type": "binding", "details": "5-FAM-THR", "method": "Immunofluorescence. Plasmids mCherry-TFR-20 and mCherry-mTfR-20 were separately transfected into the 50-70% confluent CHO-TRVB cells grown on glass coverslips using lipofectamine 3000 reagent (Invitrogen, USA). After 48 h post-transfection, the coverslips were washed and incubated with 1 nM 5-FAM-THR at 37° C. for 1 h, then cells were acid-washed with 0.2 M glycine/HCl, pH 2.2, and fixed in 4% paraformaldehyde for 30 min at 4° C. Finally, DAPI was used at a 1:5,000 dilution for 5 min at RT. Coverslips were mounted and imaged on the Olympus IX-83 fluorescence microscope."}, "[5]": {"assay": "AAV9 brain transduction with THR after systemic administration", "type": "in vivo"}, "[6]": {"tested_on": "Huh7 or HEK293 cells", "assay": "Neutralization assay (Nab titer)", "type": "cell-based, human", "details": "THR at different concentrations", "method": "Neutralization assay. Huh7 or HEK293 cells were seeded in 48-well plates with a density of 5E+04 cells each well. The complex of AAV8/luc and different concentrations of THR was incubated at 4° C. for 2 h, then, two-fold dilutions of the mouse AAV8 sera were incubated with 1E+04vg of AAV8/luc virus or the complex of AAV8/luc and THR per cell for 1 h at 37° C. The final mixture was added into cells and incubated at 37° C. for 48 h. Cells were lysed with passive lysis buffer (Promega, Madison, WI) and luciferase activity was measured. Nab titers were defined as the highest dilution for which luciferase activity was 50% lower than serum-free controls."}, "[7]": {"tested_on": "C57BL/6 mice", "details": "1E+11 vg each mouse, intravenous; 5 min to 48 h; vs AAV8/luc", "quoted_text": "as §1"}, "[8]": {"tested_on": "HEK293 cells or Huh7 cells", "assay": "In vitro transduction assay, AAV8/luc with peptides", "type": "cell-based, human", "details": "10000 vg AAV8/luc incubated with peptides 2 h at 4° C.; both cell lines; 48 h; vs AAV8 only", "method": "In vitro transduction assay. At least 4-5 h prior to AAV transduction, cells were seeded in 48-well plates with a density of 1E+05 cells each well. Cells were infected with 1E+04 vector genomes (vg) of AAV8/luc virus per cell and harvested after 48 h. Luciferase activity was measured following manufacturer's instruction (Promega, Madison, WI).\nThe complex of AAV8 and peptides influences AAV8 transduction in vitro and in vivo. To identify the potential and functional peptides that enhanced AAV8 transduction, we screened several reported peptides as shown in Table 5 and Table 6. First, we tested the cytotoxicity of peptides at different concentrations on cells. […] After that, we performed the transduction assay in vitro. We incubated the 10000 vg AAV8/luc and peptides for 2 h at 4° C., and then applied the mixture to HEK293 cells or Huh7 cells. After 48 h, the cell lysate was collected for luciferase analysis."}, "[9]": {"tested_on": "human transferrin binding to AAV8 virions", "assay": "AAV8 competitive binding assay", "details": "pre-incubation with AAV8, then human transferrin; pull down with transferrin antibody, qPCR", "method": "AAV8 competitive binding assay. For THR competitive binding analysis, 10 ul of Protein G resin (Thermo, USA) per system was incubated with 1 ug of human transferrin antibody or goat IgG antibody control at 4° C. overnight. […] After that, the mixture was added to the complex of protein G resin and transferrin antibody and incubated at 4° C. overnight. Finally, the complex was stringently washed three times with cold DPBS. DNA from the complex was extracted and applied for qPCR to determine AAV genome copy number per cell using luc specific primers.\nTo investigate whether THR also binds to the same location of AAV8 virions as human serum proteins, we performed a competitive assay. […] The transferrin antibody was used to pull down transferrin bound AAV8 virions and AAV8 gene copy number was measured by qPCR."}, "[10]": {"tested_on": "Huh7 cells", "assay": "AAV8 binding assay", "type": "cell-based, human", "details": "4° C., 1 h; genome copy number normalized to GAPDH", "method": "AAV8 binding assay. The complex of AAV8/luc and THR or human apo-transferrin protein (Sigma, 616395, USA) was incubated at 4° C. for 2 h, 10000 vg AAV8/luc virus alone or the complex was added into Huh7 cells at a cell density of 4E+05 per well for 1 h at 4° C., and then washed with DPBS 3 times. Finally, genome DNA (gDNA) was extracted from the cells with the DNeasy blood & tissue kit (Qiagen, USA) and was quantified by qPCR with luciferase primers and reference GAPDH primers."}}, "note": "Entries after “also recorded” stand apart in the source; their conditions may differ. Ends that are not written are not given here.", "data": [{"substance": "THRPPMWSPVWP-NH2 [THR]", "values": [{"measurement": "AAV8 transduction in the whole body, especially brain (imaging)", "setting": "[1]; 0.1 mM peptide + 5E+10 vg AAV8/luc, 7th day", "result": "significantly increased AAV8 transduction overall; also recorded: significantly enhances AAV8 transduction in vivo, especially in the brain"}, {"measurement": "transgene expression in the liver (imaging)", "setting": "[1]; 0.1 mM peptides + 5E+10 vg AAV8/luc, retro-orbital vein, 7th day", "result": "higher"}, {"measurement": "AAV8 transduction in whole body and brain (imaging), high dose", "setting": "[1]; 1E+11 vg each mouse, AAV8-0.1 mM THR", "result": "enhanced the AAV8 transduction in both the whole body and the brain"}, {"measurement": "AAV8 liver transduction (imaging), THR mixed just before injection", "setting": "[1]; AAV8/0.1 mM THR, no pre-incubation", "result": "blocked AAV8 liver transduction"}, {"measurement": "luciferase imaging signal, dose dependence", "setting": "[1]; different concentrations of THR + 5E+10 particles AAV8/luc", "result": "stronger imaging signals; also recorded: enhances the AAV8 transduction in vivo in a dose-dependent manner"}, {"measurement": "AAV8 brain transduction (luc expression and genome number)", "setting": "[2]; 0.1 mM peptides + 5E+10 vg AAV8/luc", "result": "increased AAV8 transduction in the brain"}, {"measurement": "luciferase expression and virus distribution in the brain, THR mixed just before injection", "setting": "[2]; AAV8/0.1 mM THR, no pre-incubation, vs AAV8", "result": "did not observe a significant difference"}, {"measurement": "AAV genome copy number in the brain", "setting": "[3]; 0.1 mM peptides + 5E+10 vg AAV8/luc, vs AAV8 only", "result": "much higher"}, {"measurement": "gene copy number in liver, brain and spleen", "setting": "[3]; three groups with different THR concentrations + 5E+10 particles AAV8/luc", "result": "significantly higher enhancement than the control group; also recorded: more vector genome copy number in the brain"}, {"measurement": "interaction with mouse TfR1", "setting": "[4]", "result": "could interact with mouse TfR1"}, {"measurement": "AAV9 brain transduction after systemic administration", "setting": "[5]", "result": "failed to enhance AAV9 brain transduction"}, {"measurement": "AAV8/luc neutralization titer (Nab titer)", "setting": "[6]", "result": "did not interfere with the AAV8/luc neutralization titer; also recorded: does not interfere with the AAV8 biology"}, {"measurement": "blood clearance of AAV8", "setting": "[7]", "result": "decreasing the AAV8 clearance in the blood"}, {"measurement": "AAV8 transduction (luciferase)", "setting": "[8]", "result": "significantly enhanced AAV8 transduction; also recorded: the most significant increase of AAV8 transduction"}, {"measurement": "inhibition of transferrin binding to AAV8", "setting": "[9]", "result": "competes with human transferrin binding to AAV8"}, {"measurement": "AAV8 virions binding to the Huh7 cells surface", "setting": "[10]", "result": "dramatically increased AAV8 virions binding; also recorded: enhanced the binding ability of AAV8 dose dependently"}]}]}
